Here are results for six compounds from patent publication US5457105A, “Quinazoline derivatives useful for treatment of neoplastic disease” (Zeneca Limited, priority 1992, dated 1995).

For orientation: IC50 means the concentration that inhibits the measured activity by half. A low value points to higher potency. As usually defined, the ED50 is the midpoint of the dose-response relation. A lower ED50 goes with an effect at a small dose.

For one experiment, the target named is T1, receptor tyrosine kinase (Homo sapiens, UniProt P00533).
T1 construct: obtained in partially purified form from A-431 cells; endogenous in cells; host or cells: A-431 cells (human vulval carcinoma); detergent-solubilised membrane fraction
As to the kind of experiment: Test (a): in vitro inhibition of the enzyme receptor tyrosine kinase (from A-431 cells). The format is biochemical. The conditions noted are these: EGF, 25° C., 10 minutes. Here is the method:
(a) An in vitro assay which determines the ability of a test compound to inhibit the enzyme receptor tyrosine kinase. Receptor tyrosine kinase was obtained in partially purified form from A-431 cells (derived from human vulval carcinoma) by procedures related to those described by Carpenter et al., J. Biol. Chem., 1979, 254, 4884, Cohen et al., J. Biol. Chem., 1982, 257, 1523 and by Braun et al., J. Biol. Chem., 1984, 259, 2051.
A-431 cells were grown to confluence using Dulbecco's modified Eagle's medium (DMEM) containing 5% fetal calf serum (FCS). The obtained cells were homogenised in a hypotonic borate/EDTA buffer at pH 10.1. The homogenate was centrifuged at 400 g for 10 minutes at 0°-4° C. The supernatant was centrifuged at 25,000 g for 30 minutes at 0°-4° C. The pelleted material was suspended in 30 mM Hepes buffer at pH 7.4 containing 5% glycerol, 4 mM benzamidine and 1% Triton X-100, stirred for 1 hour at 0°-4° C., and recentrifuged at 100,000 g for 1 hour at 0°-4° C. The supernatant, containing solubilised receptor tyrosine kinase, was stored in liquid nitrogen.
For test purposes 40 μl of the enzyme solution so obtained was added to a mixture of 400 μl of a mixture of 150 mM Hepes buffer at pH 7.4, 500 μM sodium orthovanadate, 0.1% Triton X-100, 10% glycerol, 200 μl water, 80 μl of 25 mM DTT and 80 µl of a mixture of 12.5 mM manganese chloride, 125 mM magnesium chloride and distilled water. There was thus obtained the test enzyme solution.
Each test compound was dissolved in dimethylsulphoxide (DMSO) to give a 50 mM solution which was diluted with 40 mM Hepes buffer containing 0.1% Triton X-100, 10% glycerol and 10% DMSO to give a 500 μM solution. Equal volumes of this solution and a solution of epidermal growth factor (EGF; 20 μg/ml) were mixed.
[γ-^32 P]ATP (3000 Ci/mM, 250 μCi) was diluted to a volume of 2 ml by the addition of a solution of ATP (100 μM) in distilled water. An equal volume of a 4 mg/ml solution of the peptide Arg-Arg-Leu-Ile-Glu-Asp-Ala-Glu-Tyr-Ala-Ala-Arg-Gly in a mixture of 40 mM Hepes buffer at pH 7.4, 0.1% Triton X-100 and 10% glycerol was added.
The test compound/EGF mixture solution (5 μl) was added to the test enzyme solution (10 μl) and the mixture was incubated at 0°-4° C. for 30 minutes. The ATP/peptide mixture (10 μl) was added and the mixture was incubated at 25° C. for 10 minutes. The phosphorylation reaction was terminated by the addition of 5% trichloroacetic acid (40 μl) and bovine serum albumin (BSA; 1 mg/ml, 5 μl). The mixture was allowed to stand at 4° C. for 30 minutes and then centrifuged. […] Radioactivity present in the filter paper was measured using a liquid scintillation counter (Sequence A). […]
The extent of inhibition was then determined at a range of concentrations of test compound to give an IC50 value.

In experiment [1] the test system is human naso-pharyngeal cancer cell line KB. As to the kind of experiment: Test (b): in vitro inhibition of growth of the human naso-pharyngeal cancer cell line KB. The format is cell-based. The conditions noted are these: KB cells, EGF (10 ng/ml), 3 days, MTT. The method, then:
(b) An in vitro assay which determines the ability of a test compound to inhibit the growth of the human naso-pharyngeal cancer cell line KB.
KB cells were seeded into wells at a density of 1×10^4 -1.5×10^4 cells per well and grown for 24 hours in DMEM supplemented with 5% FCS (charcoal-stripped). Cell growth was determined after incubation for 3 days by the extent of metabolism of MTT tetrazolium dye to furnish a bluish colour. Cell growth was then determined in the presence of EGF (10 ng/ml) or in the presence of EGF (10 ng/ml) and a test compound at a range of concentrations. An IC50 value could then be calculated.

The subject of experiment [2] is liver hepatocyte growth caused by the administration of the growth factor TGFα. In words: Test (c): in vivo inhibition of TGFα-stimulated liver hepatocyte growth in male rats. The note with it: usually orally, TGFα 400 μg/kg subcutaneously, inhibition of BrdU uptake, approximate ED50. Details: species or system rat. Here is the method:
Cell-growth in the control and test animals is determined as follows: On the morning of the day after the dosing of the test compound (or 0.5% polysorbate in the control group), the animals are dosed with bromodeoxyuridine (BrdU; 100 mg/kg intraperitoneally). The animals are killed four hours later and the livers are excised. […] Further tests were carried out using a range of doses of the test compounds to allow the calculation of an approximate ED50 value for the inhibition of liver hepatocyte proliferation as determined by inhibition of the uptake of BrdU.

The test system of experiment [3] is human mammary carcinoma which expresses epidermal growth factor (EGF) receptor tyrosine kinase. The note with it: athymic nude mice; EGF receptor tyrosine kinase expressing; Toi et al. 1990; cited from earlier work.
Experiment [4] deals with another carcinoma which does not express EGF receptor tyrosine kinase. The conditions noted are these: carcinoma not expressing EGF receptor tyrosine kinase; Toi et al. 1990; cited from earlier work.

Molecules are shown by their SMILES.

T1 sequence (P00533 25-1210): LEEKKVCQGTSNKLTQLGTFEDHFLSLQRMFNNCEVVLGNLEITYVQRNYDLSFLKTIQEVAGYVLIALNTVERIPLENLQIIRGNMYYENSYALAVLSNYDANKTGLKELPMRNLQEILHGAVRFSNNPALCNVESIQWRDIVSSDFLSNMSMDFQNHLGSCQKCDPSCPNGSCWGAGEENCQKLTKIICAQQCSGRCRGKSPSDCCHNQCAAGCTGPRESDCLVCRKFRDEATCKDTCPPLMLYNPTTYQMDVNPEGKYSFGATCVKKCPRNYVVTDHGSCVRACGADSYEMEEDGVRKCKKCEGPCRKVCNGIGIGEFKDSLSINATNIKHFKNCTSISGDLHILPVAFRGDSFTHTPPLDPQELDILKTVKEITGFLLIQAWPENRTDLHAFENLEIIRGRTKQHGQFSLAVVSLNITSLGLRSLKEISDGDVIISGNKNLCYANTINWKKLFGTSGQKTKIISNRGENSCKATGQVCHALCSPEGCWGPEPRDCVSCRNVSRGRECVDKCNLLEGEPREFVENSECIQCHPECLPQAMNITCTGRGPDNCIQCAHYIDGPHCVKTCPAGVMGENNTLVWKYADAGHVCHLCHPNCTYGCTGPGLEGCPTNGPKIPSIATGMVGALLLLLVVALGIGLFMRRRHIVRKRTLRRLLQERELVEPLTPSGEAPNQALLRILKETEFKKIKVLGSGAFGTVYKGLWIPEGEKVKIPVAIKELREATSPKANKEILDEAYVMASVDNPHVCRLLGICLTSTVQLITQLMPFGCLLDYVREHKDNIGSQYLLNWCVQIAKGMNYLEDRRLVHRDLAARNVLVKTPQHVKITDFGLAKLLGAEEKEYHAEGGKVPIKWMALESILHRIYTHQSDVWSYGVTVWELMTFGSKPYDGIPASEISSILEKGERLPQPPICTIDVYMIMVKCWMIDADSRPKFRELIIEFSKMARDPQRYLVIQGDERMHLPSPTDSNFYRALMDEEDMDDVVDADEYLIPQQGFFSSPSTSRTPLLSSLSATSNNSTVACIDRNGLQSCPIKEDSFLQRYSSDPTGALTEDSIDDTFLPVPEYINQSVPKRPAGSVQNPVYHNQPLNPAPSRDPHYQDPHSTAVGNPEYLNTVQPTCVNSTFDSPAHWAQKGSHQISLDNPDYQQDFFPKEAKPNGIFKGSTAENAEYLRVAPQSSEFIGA

Regarding `COc1cc2ncnc(Nc3cccc(C(F)(F)F)c3)c2cc1OC` [6,7-dimethoxy-4-(3'-trifluoromethylanilino)quinazoline], the IC50 was determined as 0.01 µM at receptor tyrosine kinase and 0.3 µM in experiment [1] (Homo sapiens, 72 h).

Take `COc1cc2c(Nc3cccc(C)c3)ncnc2cc1OCCO` [7-(2-hydroxyethoxy)-6-methoxy-4-(3'-methylanilino)quinazoline]: the IC50 was 0.005 µM against receptor tyrosine kinase and 0.14 µM in experiment [1] (Homo sapiens, 72 h).

Take `Cc1cccc(Nc2ncnc3ccc(N)cc23)c1` [6-amino-4-(3'-methylanilino)quinazoline]: the “ED50 in Test (c)” value in experiment [2] is less than 5 mg/kg. For the same compound, in experiment [1], it took 1 µM to reach half-maximal inhibition (IC50).

On to `CC(=O)Nc1ccc2ncnc(Nc3cccc(C)c3)c2c1` [6-acetamido-4-(3'-methylanilino)quinazoline], for which the IC50 against receptor tyrosine kinase amounted to 0.01 µM; in experiment [1] (Homo sapiens, 72 h) it was 0.65 µM.

On to `COc1cc2ncnc(Nc3cccc(C)c3)c2cc1OC` [6,7-dimethoxy-4-(3'-methylanilino)quinazoline], for which, in experiment [2] (Rattus norvegicus, Hepatocyte, po), the ED50 is less than 5 mg/kg. The IC50 amounted to 0.005 µM against receptor tyrosine kinase and 0.05 µM in experiment [1] (Homo sapiens, 72 h).

As to `O=CN/C=C/c1cc(O)ccc1O` [erbstatin], in experiment [3], the “growth of transplanted human mammary carcinoma” value is reported as “specifically attenuates the growth”. Further, the “growth of another carcinoma” value in experiment [4] is listed as “without effect”.
